# Experimental data taken from patent US8653095B2, “Small molecules with antimalarial activity” (Radix Pharmaceuticals, Inc., priority 2011, dated 2014).
# Where two headings read alike, the source gives them in different places.
# Legend:
# P. falciparum DD2 = experiment: In vitro blood stage antimalarial efficacy, [3H]hypoxanthine uptake, strain DD2; type: cell-based; conditions: Plasmodium falciparum
# Description: (§1) In Vitro Blood Stage Antimalarial Efficacy Evaluation. New compounds were tested against a panel of strains of P. falciparum.
# (§2) Test compounds were initially dissolved in DMSO and diluted 400 fold in RPMI 1640 culture medium supplemented with 25 mM Hepes, 32 mM NaHCO3 and 10% Albumax I (Gibco, NY). These solutions were subsequently serially diluted two-fold with a Beckman Biomek® 1000 Robot (Fullerton, Calif.) over 11 different concentrations. The parasites were exposed to serial dilutions of each compound for 48 hrs and incubated at 37° C. with 5% O2, 5% CO2 and 90% N2 prior to the addition of [^3H]hypoxanthine. After a further incubation of 18 hrs, parasite DNA was harvested from each microtiter well using Packard Filtermate™ 196 Harvester (Meriden, Conn.) onto glass filters. Uptake of [^3H]hypoxanthine was measured with a Packard TopCount Liquid Scintillation Counter (Packard Instrument Co.).
# P. falciparum TM4 = experiment: In vitro blood stage antimalarial efficacy, [3H]hypoxanthine uptake, strain TM4; type: cell-based; conditions: Plasmodium falciparum
# Description: as §1, §2
# P. falciparum K1 = experiment: In vitro blood stage antimalarial efficacy, [3H]hypoxanthine uptake, strain K1; type: cell-based; conditions: Plasmodium falciparum
# Description: as §1, §2
# P. falciparum TM6 = experiment: In vitro blood stage antimalarial efficacy, [3H]hypoxanthine uptake, strain TM6; type: cell-based; conditions: Plasmodium falciparum
# Description: as §1, §2
# P. falciparum V1S = experiment: microbe, parasite or virus in culture; type: cell-based; conditions: Plasmodium falciparum
# Description: as §1, §2
# P. falciparum PH3 = experiment: In vitro blood stage antimalarial efficacy, [3H]hypoxanthine uptake, strain PH3; type: cell-based; conditions: Plasmodium falciparum
# Description: as §1, §2
# P. falciparum 3D7 = experiment: In vitro blood stage antimalarial efficacy, [3H]hypoxanthine uptake, strain 3D7; type: cell-based; conditions: Plasmodium falciparum
# Description: as §1, §2
# rodent P. berghei = conditions: for MCureD (minimum curative dose): rodent P. berghei
# Description: Antimalarial potency was measured by determination of the MCD (minimum clearance dose), a commonly used efficacy measurement. The primary therapeutic indices, which were obtained by using the MCDs as the effective parameters, were calculated. A secondary therapeutic indices measure of antimalarial potency was determined by use of the dose for the MCureD (minimum curative dose).
# [1] = tested on: Liver stage of P. yoelii yoelii; experiment: In vitro liver-stage antimalarial efficacy evaluation; type: cell-based; conditions: Plasmodium yoelii
# Description: In Vitro Liver-Stage Antimalarial Efficacy Evaluation. Any new desirable antimalarial drug should be broad spectrum: it should be active against both the blood stage and the liver stage of the parasite. New compounds were assessed on the Plasmodium yoelii liver stage in vitro. The liver stage of P. yoelii is a parasite of rodent extensively used as an experimental model for studying the initial phase of the malaria infection.
# Plasmodium cynomolgi = experiment: Radical curative activity in relapsed Rhesus monkeys; type: in vivo; conditions: CQ alone 10 mg/kg/day for 7 days, no drug 2
# Excerpt: Compounds with antihypnozoite activity will delay the relapse or radically cure the infection. […] Relapse was expected in the control group. Relapse in the treated group indicates failure of the test compounds. […] After standard treatment, blood smears were monitored daily for 4 consecutive days of negative results and 2 times weekly for 2 weeks.
# P. berghei NK-65 = experiment: In vivo efficacy in Swiss mice infected with P. berghei; conditions: Plasmodium berghei, 96 h; P. berghei NK-65, Swiss mice, oral once daily for 4 days; read-out: ED50
# [2] = tested on: multi-drug resistant P. falciparum Thailand T24 strain; experiment: In vivo efficacy in immunocompromised BXN mice infected with P. falciparum T24; conditions: Plasmodium falciparum, 96 h, oral once daily for 4 days
# Excerpt: (§3) Antimalarial efficacy data was obtained by evaluating new compounds in two rodent models: (I) Swiss mice infected with rodent malaria strain P. berghei; (II) Immunocompromised BXN mice infected with either the sensitive P. falciparum African NF54 strain or the multi-drug resistant P. falciparum Thailand T24 strain.
# [3] = tested on: P. falciparum African NF54 strain; experiment: In vivo efficacy in immunocompromised BXN mice infected with P. falciparum NF54; conditions: Plasmodium falciparum, 96 h, oral once daily for 4 days
# Excerpt: as §3
# [4] = Sprague-Dawley, rat, in vivo, po
smiles,measurement,setting,value
"CCN(CC)Cc1cc(Nc2ccnc3cc(Cl)ccc23)ccc1O [Amodiaquine, reference compound]",IC50,P. falciparum DD2; read-out: IC50,0.0091 ± 0.0012 µM
same,IC50,P. falciparum TM4; read-out: IC50,0.0152 ± 0.0026 µM
same,IC50,P. falciparum K1; read-out: IC50,0.0212 ± 0.0021 µM
same,IC50,P. falciparum TM6; read-out: IC50,0.0075 ± 0.0024 µM
same,IC50,P. falciparum V1S,0.0087 ± 0.0025 µM
same,IC50,P. falciparum PH3; read-out: IC50,0.0159 ± 0.0032 µM
same,IC50,P. falciparum 3D7; read-out: IC50,0.0049 ± 0.0018 µM
C[C@H]1[C@H](OC(=O)CCC(=O)O)O[C@@H]2O[C@@]3(C)CC[C@H]4[C@H](C)CC[C@@H]1[C@@]24OO3 [Artesunate],Primary therapeutic index,"rodent P. berghei; MTD divided by MCD, route iv",37
same,Secondary therapeutic index,"rodent P. berghei; MTD divided by MCureD, route iv",10
same,MCureD (minimum curative dose),rodent P. berghei; route iv,25.4 mg/kg
same,MTD (maximum tolerated dose),"rats, route iv",250 mg/kg
"O=C1C(O)=C([C@H]2CC[C@H](c3ccc(Cl)cc3)CC2)C(=O)c2ccccc21 [Atovaquone, reference compound]",IC50,[1],0.057 µM
"CCN(CC)CCCC(C)Nc1ccnc2cc(Cl)ccc12 (stereo not shown) [Chloroquine, reference compound]",IC50,P. falciparum DD2,0.0458 ± 0.0102 µM
same,IC50,P. falciparum TM4,0.115 ± 0.0127 µM
same,MCureD (minimum curative dose),rodent P. berghei; administered orally,None
same,Results (radical curative test),Plasmodium cynomolgi,relapse
same,Days post-treatment (relapse),Plasmodium cynomolgi; one value per monkey,9 days
same,IC50,P. falciparum K1,0.166 ± 0.0193 µM
same,IC50,P. falciparum TM6,0.0964 ± 0.0069 µM
same,IC50,P. falciparum V1S,0.152 ± 0.0141 µM
same,MTD (maximum tolerated dose),"rats, administered orally (intragastric), observed 2 weeks",240 mg/kg
same,IC50,P. falciparum PH3,0.0334 ± 0.0091 µM
same,IC50,P. falciparum 3D7,0.0097 ± 0.0034 µM
"C[C@H]1[C@@H](O)O[C@@H]2O[C@@]3(C)CC[C@H]4[C@H](C)CC[C@@H]1[C@@]24OO3 [Dihydroartemisinin, reference compound]",ED50,P. berghei NK-65,0.56 mg/kg
same,ED50,[2],1.2 mg/kg
same,ED50,[3],1.1 mg/kg
OC(c1cc(C(F)(F)F)nc2c(C(F)(F)F)cccc12)C1CCCCN1 (stereo not shown) [Mefloquine],Primary therapeutic index,rodent P. berghei; [4],60
same,Secondary therapeutic index,rodent P. berghei; [4],15
same,MCureD (minimum curative dose),rodent P. berghei; administered orally,40.5 mg/kg
same,MTD (maximum tolerated dose),"Sprague-Dawley, rat, in vivo, po, 2 weeks",600 mg/kg
"COc1cc(NC(C)CCCN)c2ncccc2c1 (stereo not shown) [Primaquine, reference compound]",IC50,[1],0.076 µM
